The values below come from a melting point compilation (Tetko et al.; mined from patent text by program, amines drawn as free bases though some values may be those of a salt).

SMILES strings stand for the structures.

Broadly, the melting point is the temperature, or range, at which the solid turns liquid.

Compound `C=Cc1cc2cc(OC)ccc2n1C` came in with a melting point of 87 to 89 °C. For `O=C1C2=C(CCCC2)C(=O)N1c1cc(O)c(Cl)cc1Cl` the value was 155 to 157 °C; for `Cc1nc(-c2cn(Cc3ccc(C(F)(F)F)cc3)nn2)sc1C(=O)NCc1cccnc1`, 204 to 205 °C; for `O=C(Oc1ccc(-c2ccccc2)cc1)Oc1ccc([N+](=O)[O-])cc1`, 138 to 140 °C. In turn, `COc1cc2c(c3c1OC(C)(C)C3)C(C)=NC(C)(C)C2` gave a melting point of 112 to 113 °C. For `CN1C(=O)[C@H](NC(=O)CCc2ccc(F)cc2F)N=C(c2ccccc2)c2ccccc21`, the melting point lay within 79 to 81 °C. Compound `O=C(Cn1nc2ccccc2n1)Nc1ccc(-n2nc(C(F)(F)F)cc2C2CC2)nc1` came in with a melting point of 193 to 198 °C.

Turning to `FC(F)(F)c1cccc(Nc2nccc(-c3ccncc3)n2)c1`, the melting point was 197 to 198 °C. As for `CCN1C(=O)C(C)(C)C(=O)N(C)c2cc(CN(CCn3ccc4oc(C)cc4c3=O)Cc3cnccc3Cl)ccc21`, the figure is 114 to 118 °C. For `Cc1cccc(C)c1N(CCn1ccnc1)C(=O)CCCc1cccnc1` the value was 104 to 106 °C; for `O=C(CCc1ccc(F)cc1)c1ccc(C(F)(F)F)cc1`, 66 to 67 °C. As for `COc1cc2c(Nc3ccc(Cl)cc3F)ncnc2cc1OCCSC`, the figure is 174 to 176 °C; as for `CC[C@H]1[C@H](O)CN1c1cc2c(cc1F)c(=O)c(C(=O)O)cn2C1CC1` (relative stereo), 250 to 255 °C; as for `CNC(=NCCSCc1cc(CN(C)C)ccn1)NC#N`, 114 to 116 °C.

As to `CC(=O)NNc1ccnc2c(NC(=O)c3c(Cl)cccc3Cl)cc(F)cc12`, the melting point was in the range of 250 to 254 °C. The compound `CC(O)=C(C#N)C(=O)N1CCN(c2ccc(NC(=O)c3cnn(-c4ccc(F)cc4)c3C)cc2C#N)CC1` had a melting point of 210 °C. As for `COc1cc(OCCN2C3C=C(c4ccc5ccccc5c4)CC2CC3)c2ncccc2c1` (stereo not given), the figure is 100 to 103 °C; as for `OC(=S)CCc1ccc(F)cc1`, 68 to 69 °C. The compound `CCOCC(O)(COCC)C(Cc1ccc2ccccc2c1)[N+](=O)[O-]` (stereo not given) yielded a melting point of 87 °C.

In the case of `Cc1cc([N+](=O)[O-])c(C)cc1SCc1cccc(C(F)(F)F)c1`, the melting point was in the range of 85 to 87 °C. For `O=C(Nc1ccc2cc(CN3CCCC3)cnc2c1)c1ccc(-c2ccc(F)cc2)nc1` the value was 218 to 220 °C; for `CC(C)OC(=O)C1CCCN1S(=O)(=O)c1ccc(N2CCC(NCC(O)c3ccc(O)c(NS(C)(=O)=O)c3)CC2)cc1` (stereo not given), 52 to 58 °C; for `Cc1ccc(Oc2nc3nc(C)cc(C)n3n2)c(C)c1`, 133 to 136 °C. Regarding `Cc1cc(C)cc(C(=O)c2c(-c3ccc(OCCN(C)C)cc3)oc3ccccc23)c1`, the melting point is 132 to 135 °C. Compound `Cc1oc(-c2ccccc2)nc1CCOc1ccc(C[C@@H](C(=O)O)N2CCN(c3ccccc3)CC2)cc1` displayed a melting point of 218 to 220 °C. As for `CCOC(=O)C(O)c1ccc(-n2cccc2)cc1` (stereo not given), the figure is 126 to 128 °C; as for `CN(C)c1cc2c(cc1C(F)(F)F)NC(=O)CC(c1cccc(-c3ccncc3)c1)=N2`, 202 °C; as for `COc1ccc(Oc2ccc3c(c2)C=C(C(=O)O)C(C(F)(F)F)O3)cc1Cl` (stereo not given), 205 to 207 °C.

`COc1ccc(OC)c(C(=O)Nc2ccc(N3CCOCC3)cc2C(C)=O)c1` displayed a melting point of 172 to 174 °C. For `NS(=O)(=O)c1cc(S(=O)(=O)N(N2CCCCC2)N2CCCCC2)c(Cl)cc1Cl`, the melting point came to 170 °C. For `COc1ccc(COc2cccc(OC)c2C(=O)C=C(SC)SC)cc1` the value was 93 to 94 °C; for `CN(C)Cc1ccc(CSCCNC2=NS(=O)C(S(C)(=O)=O)=C2N)o1` (stereo not given), 134 to 137 °C; for `CCCCCCCCCCCCCCCc1cc2cc(C(=O)OC)ccc2[nH]1`, 89 to 92 °C.

As for `Cc1c(C(=O)c2cnn(C)c2OCc2ccccc2)ccc(S(C)(=O)=O)c1C1=NOCC1`, the melting point fell in the range of 152 to 153 °C. Consider `COc1nc(C)n2nc(S(=O)(=O)Nc3c(Cl)cccc3Cl)nc2c1Cl`, for which the melting point fell in the range of 255 to 256 °C.

In the case of `O=C1CCc2cc(C3=NNC(=O)C4CCC34)ccc2N1` (stereo not given), the melting point lay within 349 to 353 °C. In turn, `CC(CCc1cc2cccnc2n(-c2cccc([N+](=O)[O-])c2)c1=O)c1ccncc1` (stereo not given) registered a melting point of 154 to 155 °C. As for `CCc1cc(Oc2ccc(NC(=O)Nc3ccc(C)cc3)cc2)ncn1`, the melting point was in the range of 160 to 162 °C. As for `CCNC(=S)NS(=O)(=O)c1cc2c(cc1OC)OCC(NC(=O)c1cc(Cl)ccc1OC)C2` (stereo not given), the figure is 194 to 195 °C; as for `Cn1cc(C(=O)Nc2cc(Cl)ccc2-c2cccc(Cl)c2)c(C(F)(Cl)Cl)n1`, 145 to 146 °C. `O=c1[nH]c2ccc(-c3cccc([N+](=O)[O-])c3)cc2[nH]1` registered a melting point of 324 to 325 °C. For `CCc1c(C(=O)c2cc(C)cc(C)c2)n(COCc2ccccc2)c(=O)[nH]c1=O` the value was 115 to 116 °C.

The compound `CCOC(=O)c1cc2cc(F)c(F)cc2nc1Cl` registered a melting point of 108 °C.

`CCOC(=O)C[C@H](O)C[C@H](O)/C=C/c1c(-c2ccc(F)cc2)nc(N(C)S(C)(=O)=O)nc1C(C)C` registered a melting point of 92 to 94 °C.

As for `Nc1ccccc1NS(=O)(=O)c1ccc([N+](=O)[O-])cc1`, the melting point was 190 to 191 °C. As for `Cc1cccc(Cn2ncc3c(N4CCN(C(=O)OC(C)(C)C)CC4)ncnc32)c1`, the figure is 130 to 131 °C; as for `CC(C)(C)OC(=O)NCC#Cc1cccnc1`, 74 to 78 °C; as for `C=Cn1nnn(-c2cc(OC)c(Cl)cc2Cl)c1=O`, 142 to 143 °C. `Cc1nccn1-c1cccc(C2=Nc3cc(O)c(-c4ccc(F)cc4)cc3NC(=O)C2)c1` returned a melting point of 260 °C. As for `O=C1CCC(c2ccc(-c3ccc(Cl)c(Cl)c3)o2)O1` (stereo not given), the figure is 89 to 90 °C; as for `CCOC(=O)Cn1cccc1-c1nc(-c2ccc(OC)cc2)c(-c2ccc(OC)cc2)s1`, 132 to 136 °C; as for `Brc1cccc(Oc2ncccc2OCCCc2ccncc2)c1`, 111 to 113 °C. In the case of `Cc1oc(-c2ccccc2)nc1CCNCc1ccc(C[C@@H](C(=O)O)n2cccc2)cc1`, the melting point was in the range of 208 to 210 °C. For `Cc1cc(OS(=O)(=O)c2c(F)cccc2F)cc2c(C3CCN(C)CC3)cn(Cc3ccccc3)c12` the value was 158 °C; for `Cn1c(C(F)(F)F)cc(=O)n(-c2cc(OCc3ccccc3)c(Cl)cc2F)c1=O`, 129 to 131 °C; for `CCc1nc2ccc(Cc3ccc(C(=O)NO)cc3)cc2c(=O)n1CCc1ccccc1`, 181 to 183 °C. For `O=C(O)CN(C(=O)OCc1ccccc1)c1ccc(O)cc1` the value was 196 to 198 °C. For `CC(C)c1ncc2cc(Cl)nc(Cl)n12` the value was 90 to 93 °C; for `CNC(=O)Oc1cccc(NC(=O)CC(C)=O)c1`, 142 °C. In turn, `Cc1nc(N)c2nc(CO)n(NC3CCOCC3)c2c1C` came in with a melting point of more than 250 °C. For `CC(C)(C)OC(=O)N=C(NCCCCNC(=O)[C@H](Cc1ccccc1)NC(=O)CCCC(=O)O)NC(=O)OC(C)(C)C` the value was 86 °C; for `Fc1ccc(Cn2c(NC3CCN(CCc4ccccc4)CC3)nc3ccc(F)cc32)cc1`, 178 °C. Turning to `CCOC(=O)c1[nH]c2ccc(C[C@H]3COC(=O)N3)cc2c1CCN(C)C`, the melting point was in the range of 49 to 55 °C. As for `COc1cccc2oc(-c3ccc(C)cc3)cc(=O)c12`, the figure is 169 to 171 °C. As for `CCCCCCc1nnc2n1-c1ccc(Cl)cc1C(c1ccccc1)=NC2`, the figure is 75 to 78 °C.

With `CCCc1nc2c(N)nc3ccc(-c4ccc(CN)cc4)cc3c2s1`, the melting point lay within 225 to 226 °C. As for `Cc1cc(Cl)c(C)c(S(=O)(=O)Nc2onc(C)c2Br)c1`, the figure is 148 to 150 °C; as for `O=C(O)/C=C/C=C(c1cccc(Cl)c1)c1cccc(Cl)c1`, 142 to 145 °C. As for `O=C(Cl)c1cc([N+](=O)[O-])c(Cl)c([N+](=O)[O-])c1`, the figure is 55 to 57 °C; as for `CCNc1cc(Oc2ccc(NC(=O)NC3Cc4ccc(Br)cc4C3)cc2)ncn1` (stereo not given), 247 °C; as for `CC(O)C(CO)(Cc1cc(C(C)(C)C)c(O)c(C(C)(C)C)c1)Cc1cc(C(C)(C)C)c(O)c(C(C)(C)C)c1` (stereo not given), 145 to 150 °C. As for `CCOC(=O)c1cnc(NC(=O)C(Cc2ccc(F)cc2)c2ccc(S(C)(=O)=O)cc2)cn1` (stereo not given), the melting point lay within 99 to 100 °C. As for `CC1(C)CCC(C)(C)c2cc(CC#Cc3ccc(C(=O)O)c(O)c3)ccc21`, the figure is 178 to 180 °C; as for `Cc1noc(NS(=O)(=O)c2ccccc2-c2cccnc2)c1C`, 147 to 150 °C. For the compound `COC(=O)c1ccc(-c2nc(COc3ccc(COc4nn(-c5ccccc5)cc4C=O)cc3OC)c(C)o2)cc1`, the melting point lay within 190 to 191 °C. As for `Cc1cccc(-c2nc(NC(=O)c3ccc(Cl)nc3)sc2-c2ccnc(NC3CCCC3)c2)c1`, the figure is 211 to 212 °C.

For `COc1cc(Cl)c(CO)c(Cl)c1`, the melting point is 71 to 72 °C. For `CC(n1ccnc1)C1(c2ccc(Cl)cc2Cl)SCCS1` (stereo not given) the value was 142 °C; for `CC12CCC3c4ccc(O)cc4C(O)C(Sc4ccc(Br)cc4)C3C1CCC2O` (stereo not given), 140 to 145 °C. `O=C(O)c1ccc2c(=O)c3cc(C(=O)O)ccc3oc2c1` came in with a melting point of more than 400 °C. Turning to `CCOC(=O)c1cc2c(=O)ccoc2nc1C(=O)OCC`, the melting point is 71 to 72 °C.

In turn, `CN(C)c1cc(N2C(=O)C3=C(CCCC3)C2=O)ccc1Cl` yielded a melting point of 124 to 127 °C. As for `CS(=O)(=O)N(Cc1ccc(Cl)cc1)CC(O)(Cn1cncn1)c1ccc(Cl)cc1Cl` (stereo not given), the figure is 121 to 122 °C; as for `CCOC(=O)C1COc2ccc(NC(C)=O)cc2O1` (stereo not given), 138 to 140 °C. For `CCCCCCCCCCCCCCCCCC(=O)NCCOC(=O)C1=CC(C(C)(C)C)C(O)(C(C)(C)C)C=C1` (stereo not given) the value was 56 to 58 °C.
